Values of other authors in US9039924B2 (priority 2010, dated 2015).

Test system: rat
Conditions: in vivo; for LD50 values below 1000 or toxic: po

| Molecule | LD50 (oral-rat; mg/kg) [mg/kg] | LD50 values below 1000 or toxic |
| --- | --- | --- |
| N#CO [NaCNO, sodium cyanate] | 5 | below 1000 |
| O.O.O.O.O.O=S([O-])([O-])=S.[Na+].[Na+] [Na2S2O3•5H2O, sodium thiosulfate pentahydrate] | 2300 |  |
| N#C[O-].[K+] [KCNO, potassium cyanate] |  | below 1000 |
| potassium bromide [KBr] | 3070 |  |
| ammonium thiocyanide [NH4CNS] | 954 | below 1000 |
| potassium chloride [KCl] | 2600 |  |
| potassium thiosulfate pentahydrate [K2S2O3•5H2O] | 802 | below 1000 |
| O=N[O-].[K+] [KNO2, potassium nitrite] |  | below 1000 |
| potassium fluoride dihydrate [KF•2(H2O)] | 245 | below 1000 |
| NC(N)=O [CO(NH2)2, urea] | 8471 |  |
| O=NO [NaNO2, sodium nitrite] |  | below 1000 |
| potassium iodide [KI] | 1862 |  |
